# Reference: US20210215714A1, “COMPLEMENT ALTERNATIVE PATHWAY-ASSOCIATED NEPHROPATHY BIOMARKERS” (Achillion Pharmaceuticals, Inc., priority 2018, published 2021)
# Tests used:
# [1] = system: AP activity; test: rabbit erythrocyte hemolysis (AP activity in vitro); assay type: cell-based; settings: Oryctolagus cuniculus
# [2] = system: AP activity; test: PNH erythrocyte hemolysis (AP activity in vitro); assay type: cell-based
# [3] = system: AP activity; test: Wieslab assay (AP activity in vitro); assay type: biochemical
# [4] = system: AP C3 convertase formation; test: Phase 2a study: ex vivo serum Ba production; assay type: in vivo, human; settings: 14-day treatment, patients A-F
# Method: (§1) Systemic complement proteins were measured in serum and plasma including serum Ba, plasma Bb, serum C3, serum Factor D, serum C4, and % Fragment C3.
# [5] = system: Bb; test: Phase 2a study: Bb levels in plasma; assay type: in vivo, human; settings: 14-day treatment, patients A-F
# Method: as §1
# [6] = system: C3; test: Phase 2a study: C3 levels in serum; assay type: in vivo, human; settings: 14-day treatment, patients A-F
# Method: as §1
# (§2) C3 levels in serum were measured using a quantitative sandwich enzyme immunoassay technique. A monoclonal antibody specific for human C3 was pre-coated onto a micro-assay plate. Standards and samples were pipetted into the wells and any C3 present was bound by the immobilized antibody. After washing away any unbound substances, an enzyme-linked polyclonal antibody specific for human C3 was added to the wells. Following a wash to remove any unbound antibody-enzyme reagent, a substrate solution was added to the wells and color develops in proportion to the amount of C3 bound in the initial step. The color development was stopped and the intensity of the color was measured. […] Patients E and F show similar results.
# [7] = system: C3b/iC3b; test: Phase 2a study: % fragment C3; assay type: in vivo, human; settings: 14-day treatment, patients A-F
# Method: as §1, §2
# [8] = system: Factor D; test: Phase 2a study: Factor D levels in serum; assay type: in vivo, human; settings: 14-day treatment, patients A-F
# Method: as §1
# (§3) Factor D levels in serum were measured using a quantitative sandwich enzyme immunoassay technique. A monoclonal antibody specific for human Complement Factor D was pre-coated onto a micro-assay plate. Standards and samples were pipetted into the wells and any Complement Factor D present was bound by the immobilized antibody. After washing away any unbound substances, an enzyme-linked polyclonal antibody specific for human Complement Factor D was added to the wells. Following a wash to remove any unbound antibody-enzyme reagent, a substrate solution was added to the wells and color develops in proportion to the amount of Complement Factor D bound in the initial step. The color development was stopped and the intensity of the color was measured spectrophotometrically at 450 nm.
# [9] = system: C4; test: Phase 2a study: C4 levels in serum; assay type: in vivo, human; settings: 14-day treatment, patients A-F
# Method: as §1
# as §3, with “C4” for “Factor D”, “C4” for “Complement Factor D”
# [10] = system: C3c; test: Phase 2a study: urinary C3c (Hycult Human C3c Elisa Kit);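 further: urine from C3 glomerulopathy or IC-MPGN patients, C3c quantified by sandwich ELISA with absorbance read at 450 nm against a human C3c standard curve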
# Method: To measure urinary C3c production, patient urine samples were tested utilizing the Hycult Biotech Human C3c Elisa Kit (HK368) for the quantitation of C3c in urine. […] Urine samples were thawed and centrifuged at 15,000 rpm for one minute. The supernatant was transferred to a fresh tube and diluted with C3c dilution buffer. Samples and standards were added to microtiter wells coated with antibodies recognizing human C3c and incubated at 1 hour at 15-25° C. Following incubation, the wells were washed 4 times with Wash Solution, with an incubation period of 1 minute each time. A biotinylated tracer antibody was added and used to bind to the captured human C3c. Streptavidin-peroxidase conjugate was then added to bind to the biotinylated tracer antibody. Tetramethylbenzidine (TMB) was then added to the Streptavidin-peroxidase conjugate. The enzyme reaction was stopped by the addition of oxalic acid. The absorbance at 450 nm was measured with a spectrophotometer. A standard curve was obtained by plotting the absorbance (linear) versus the corresponding concentrations of the human C3c standards (log). The human C3c concentration of samples, which are run concurrently with the standards, were determined from the standard curve.
compound,measurement,setting,value
"CC(=O)c1nn(CC(=O)N2C[C@H](F)C[C@H]2C(=O)Nc2cccc(Br)n2)c2ccc(-c3cnc(C)nc3)cc12 [Compound 1, (2S,4R)-1-(2-(3-acetyl-5-(2-methylpyrimidin-5-yl)-1H-indazol-1-yl)acetyl)-N-(6-bromopyridin-2-yl)-4-fluoropyrrolidine-2-carboxamide]",IC50,[1],27 nM
same,IC50,[2],14 nM
same,IC50,[3],26 nM
same,Ex vivo serum Ba production,[4],inhibited
same,Plasma Bb,[5],reduced
same,Serum C3,[6],increased
same,% fragment C3,[7],reduced
same,Serum Factor D,[8],remained unchanged
same,Serum C4,[9],remained unchanged
same,uC3c,"[10]; Patient A, 100 mg TID, Day 1 predose",25.4 ng/mL
same,uC3c,"[10]; Patient A, 100 mg TID, Day 4",15.2 ng/mL
same,uC3c,"[10]; Patient A, 100 mg TID, Day 7-0 Hour",7.1 ng/mL
same,uC3c,"[10]; Patient A, 100 mg TID, Day 10",9.9 ng/mL
same,uC3c,"[10]; Patient A, 100 mg TID, Day 14",3.6 ng/mL
same,uC3c,"[10]; Patient A, 100 mg TID, Day 15 Taper",6.8 ng/mL
same,uC3c,"[10]; Patient A, 100 mg TID, Day 16 Taper",4.1 ng/mL
same,uC3c,"[10]; Patient A, 100 mg TID, Day 17 Taper",8.5 ng/mL
same,uC3c,"[10]; Patient A, 100 mg TID, Day 21",7.8 ng/mL
same,uC3c,"[10]; Patient A, 100 mg TID, Day 24",11.4 ng/mL
same,uC3c,"[10]; Patient A, 100 mg TID, Day 28",15.6 ng/mL
same,uC3c,"[10]; Patient A, 100 mg TID, Day 49",32.8 ng/mL
same,uC3c,"[10]; Patient B, 100 mg TID, Day 1 predose",771.1 ng/mL
same,uC3c,"[10]; Patient B, 100 mg TID, Day 4",369.0 ng/mL
same,uC3c,"[10]; Patient B, 100 mg TID, Day 7-0 Hour",289.2 ng/mL
same,uC3c,"[10]; Patient B, 100 mg TID, Day 10",256.0 ng/mL
same,uC3c,"[10]; Patient B, 100 mg TID, Day 14",462.7 ng/mL
same,uC3c,"[10]; Patient B, 100 mg TID, Day 15 Taper",682.8 ng/mL
same,uC3c,"[10]; Patient B, 100 mg TID, Day 16 Taper",534.1 ng/mL
same,uC3c,"[10]; Patient B, 100 mg TID, Day 17 Taper",290.8 ng/mL
same,uC3c,"[10]; Patient B, 100 mg TID, Day 21",513.5 ng/mL
same,uC3c,"[10]; Patient B, 100 mg TID, Day 24",744.1 ng/mL
same,uC3c,"[10]; Patient B, 100 mg TID, Day 28",285.3 ng/mL
same,uC3c,"[10]; Patient B, 100 mg TID, Day 49",>1000 ng/mL
same,uC3c,"[10]; Patient C, 200 mg TID, Day 1 predose",<1.6 ng/mL
same,uC3c,"[10]; Patient C, 200 mg TID, Day 4",<1.6 ng/mL
same,uC3c,"[10]; Patient C, 200 mg TID, Day 7-0 Hour",<1.6 ng/mL
same,uC3c,"[10]; Patient C, 200 mg TID, Day 10",<1.6 ng/mL
same,uC3c,"[10]; Patient C, 200 mg TID, Day 14",<1.6 ng/mL
same,uC3c,"[10]; Patient C, 200 mg TID, Day 15 Taper",<1.6 ng/mL
same,uC3c,"[10]; Patient C, 200 mg TID, Day 17 Taper",<1.6 ng/mL
same,uC3c,"[10]; Patient C, 200 mg TID, Day 21",<1.6 ng/mL
same,uC3c,"[10]; Patient C, 200 mg TID, Day 24",2.1 ng/mL
same,uC3c,"[10]; Patient C, 200 mg TID, Day 28",<1.6 ng/mL
same,uC3c,"[10]; Patient C, 200 mg TID, Day 49",<1.6 ng/mL
same,uC3c,"[10]; Patient D, 200 mg TID, Day 1 predose",8.8 ng/mL
same,uC3c,"[10]; Patient D, 200 mg TID, Day 4",5.3 ng/mL
same,uC3c,"[10]; Patient D, 200 mg TID, Day 7-0 Hour",<1.6 ng/mL
same,uC3c,"[10]; Patient D, 200 mg TID, Day 10",<1.6 ng/mL
same,uC3c,"[10]; Patient D, 200 mg TID, Day 14",3.7 ng/mL
same,uC3c,"[10]; Patient D, 200 mg TID, Day 15 Taper",3.6 ng/mL
same,uC3c,"[10]; Patient D, 200 mg TID, Day 17 Taper",4.8 ng/mL
same,uC3c,"[10]; Patient D, 200 mg TID, Day 21",5.8 ng/mL
same,uC3c,"[10]; Patient D, 200 mg TID, Day 24",5.1 ng/mL
same,uC3c,"[10]; Patient D, 200 mg TID, Day 28",5.1 ng/mL
same,uC3c,"[10]; Patient D, 200 mg TID, Day 49",7.0 ng/mL
same,uC3c,"[10]; Patient E, 200 mg TID, Day 1 predose",159.6 ng/mL
same,uC3c,"[10]; Patient E, 200 mg TID, Day 4",137.7 ng/mL
same,uC3c,"[10]; Patient E, 200 mg TID, Day 7-0 Hour",168.2 ng/mL
same,uC3c,"[10]; Patient E, 200 mg TID, Day 10",123.2 ng/mL
same,uC3c,"[10]; Patient E, 200 mg TID, Day 14",64.4 ng/mL
same,uC3c,"[10]; Patient E, 200 mg TID, Day 15 Taper",39.7 ng/mL
same,uC3c,"[10]; Patient E, 200 mg TID, Day 16 Taper",46.8 ng/mL
same,uC3c,"[10]; Patient E, 200 mg TID, Day 17 Taper",107.0 ng/mL
same,uC3c,"[10]; Patient E, 200 mg TID, Day 21",41.2 ng/mL
same,uC3c,"[10]; Patient E, 200 mg TID, Day 24",89.6 ng/mL
same,uC3c,"[10]; Patient E, 200 mg TID, Day 28",97.8 ng/mL
same,uC3c,"[10]; Patient E, 200 mg TID, Day 49",120.3 ng/mL
same,uC3c,"[10]; Patient F, 200 mg TID, Day 1 predose",216.3 ng/mL
same,uC3c,"[10]; Patient F, 200 mg TID, Day 4",63.0 ng/mL
same,uC3c,"[10]; Patient F, 200 mg TID, Day 7-0 Hour",25.8 ng/mL
same,uC3c,"[10]; Patient F, 200 mg TID, Day 10",43.9 ng/mL
same,uC3c,"[10]; Patient F, 200 mg TID, Day 14",31.8 ng/mL
same,uC3c,"[10]; Patient F, 200 mg TID, Day 15 Taper",24.2 ng/mL
same,uC3c,"[10]; Patient F, 200 mg TID, Day 16 Taper",30.0 ng/mL
same,uC3c,"[10]; Patient F, 200 mg TID, Day 17 Taper",32.4 ng/mL
same,uC3c,"[10]; Patient F, 200 mg TID, Day 21",64.0 ng/mL
same,uC3c,"[10]; Patient F, 200 mg TID, Day 24",34.4 ng/mL
same,uC3c,"[10]; Patient F, 200 mg TID, Day 28",41.5 ng/mL
same,uC3c,"[10]; Patient F, 200 mg TID, Day 49",154.5 ng/mL
same,Urinary C3c levels,[10]; two-week treatment,reduced significantly
same,Urinary C3c levels normalized to urinary creatinine or albumin,[10]; two-week treatment,reduced significantly
